From patent US4810779A, “Decapeptides having hypotensive action and process for their preparation” (Enichem Elastomeri S.p.A., priority 1985, dated 1989)
Read-outs that look alike come from different tables or passages of the source. Where a SMILES comes first, the peptide text is derived from it. [ ]: non-standard residue; d: D form. pGlu = O=C1CC[C@@H](C(=O)O)N1; Orn = NCCC[C@H](N)C(=O)O

Tests used:
arterial pressure [1] = details: cited from earlier work
arterial pressure [2] = assay: Effect of the decapeptides on arterial pressure (injection into femoral vein of anaesthetized rats); assay type: in vivo, C.D. male rats; details: for Duration of hypotensive effect / Pressure Difference Maximum / Pressure Difference Minimum / hypotensive effect (in words): femoral vein; for Duration of hypotensive effect / Pressure Difference Maximum / Pressure Difference Minimum: anaesthetized rats
Protocol: (§1) The activity of the decapeptides of the present invention has been determined in vivo on C.D. male rats available from Charles-River Co., anesthetized by ethyl urethane.
(§2) The effect on the arterial pressure and on bradykinin potentating has been studied by injecting into femoral vein a decapeptide (I) in an amount of from 0.3 to 0.2 mg/kg of body weight.
Five C.D. male rats available from Charles River Co., of weight of 200-300 g, anaesthetized by ethyl urethane (1.75 g/kg by intraperitoneal way) are used.
After tracheal cannulating, the right-hand carotid artery is isolated and connected by cannula to a Hewlett-Packard Model 1280 pressure transducer.
From isolated left-hand carotid the arterial flow is recorded by means of Biotronex® electromagnetic flowmeter, and pressure variation wiith the (dp/dt), electrocardiogram (ECG) and the beats per minute (BPM) are recorded on Hewlett Packard Polygraph.
The decapeptides of the present invention have been tested by being injected into right-hand femoral vein at the dose of 0.3-0.2 mg/kg of body weight, and compared to the decapeptide (II) of the prior art.

bradykinin = assay: Effect of decapeptides as bradykinin potentiators (injection into femoral vein soon before bradykinin); assay type: in vivo, Male C.D. rats; details: for Duration of hypotensive effect (t) / Pressure Difference Maximum / Pressure Difference Minimum: bradykinin potentiation, femoral vein soon before bradykinin; for potentiation of the hypotensive effect / activity of bradykinin (in words): in vivo, male rats
Protocol: as §1, §2
Male C.D. rats of Charles-River race are treated as described in Example 8, and submitted to test by bradykinin.
Bradykinin is a physiologic peptide which, when injected into femoral vein, causes a fast but not long-lasting hypotensive effect, because it is rapidly degraded at pulmonary circulation level by the Angiotensin Conversion Enzyme (ACE).
The peptides of the present invention are tested by being injected into the right-hand femoral vein soon before bradykinin, and comparing them to the decapeptide of the prior art.

arterial pressure [3] = details: injected into the femoral vein of rats; cited from earlier work

Structure (SMILES)	antihypertensive action (arterial pressure [1]; administered orally)	antihypertensive action (arterial pressure [1]; intravenous administration)	Duration of hypotensive effect (arterial pressure [2]; 0.2 mg/kg) [min]	Pressure Difference Maximum (arterial pressure [2]; 0.2 mg/kg) [mmHg]	Pressure Difference Minimum (arterial pressure [2]; 0.2 mg/kg) [mmHg]	hypotensive effect (in words) (arterial pressure [2]; in vivo, male rats)	Duration of hypotensive effect (t) (bradykinin; 0.2 mg/kg) [min]	Pressure Difference Maximum (bradykinin; 0.2 mg/kg) [mmHg]	Pressure Difference Minimum (bradykinin; 0.2 mg/kg) [mmHg]	potentiation of the hypotensive effect / activity of bradykinin (in words) (bradykinin)	Duration of hypotensive effect (arterial pressure [2]; 0.3 mg/kg) [min]	Pressure Difference Maximum (arterial pressure [2]; 0.3 mg/kg) [mmHg]	Pressure Difference Minimum (arterial pressure [2]; 0.3 mg/kg) [mmHg]	Duration of hypotensive effect (t) (bradykinin; 0.3 mg/kg) [min]	Pressure Difference Maximum (bradykinin; 0.3 mg/kg) [mmHg]	Pressure Difference Minimum (bradykinin; 0.3 mg/kg) [mmHg]	lowering in arterial pressure (arterial pressure [3])	potentiation of the activity of bradykinin (arterial pressure [3])	eurhythmizing effect (arterial pressure [2]; in vivo, male rats)
CC[C@H](C)[C@H](NC(=O)[C@H](CCC(N)=O)NC(=O)[C@@H]1CCCN1C(=O)[C@H](CCCNC(=N)N)NC(=O)[C@@H]1CCCN1C(=O)[C@H](Cc1c[nH]c2ccccc12)NC(=O)[C@@H]1CCC(=O)N1)C(=O)N1CCC[C@H]1C(=O)N1CCC[C@H]1C(=O)O [Teprotide]	inactive when administered orally	powerful antihypertensive agent	–	–	–	–	–	–	–	–	–	–	–	–	–	–	–	–	–
CC(C)C[C@H](NC(=O)[C@@H]1CCC(=O)N1)C(=O)N[C@@H](Cc1c[nH]c2ccccc12)C(=O)N1CCC[C@H]1C(=O)N[C@@H](CCCN)C(=O)N1CCC[C@H]1C(=O)N[C@@H](Cc1c[nH]cn1)C(=O)N[C@H](C(=O)N1CCC[C@H]1C(=O)N1CCC[C@H]1C(=O)O)C(C)C [Decapeptide IV, Glp-Leu-Trp-Pro-Orn-Pro-His-Val-Pro-Pro-OH] ([pGlu]LWP[Orn]PHVPP-OH)	–	–	< 10	20	25	cause in vivo a hypotensive effect	45	25	30	potentiate the activity of bradykinin	–	–	–	–	–	–	–	–	–
CC(C)C[C@H](NC(=O)[C@@H]1CCC(=O)N1)C(=O)N[C@@H](Cc1c[nH]c2ccccc12)C(=O)N1CCC[C@H]1C(=O)N[C@@H](CCCNC(=N)N)C(=O)N1CCC[C@H]1C(=O)N[C@@H](Cc1c[nH]cn1)C(=O)N[C@H](C(=O)N1CCC[C@H]1C(=O)N1CCC[C@H]1C(=O)O)C(C)C [Decapeptide V, Glp-Leu-Trp-Pro-Arg-Pro-His-Val-Pro-Pro-OH] ([pGlu]LWPRPHVPP-OH)	–	–	< 10	15	15	cause in vivo a hypotensive effect	30	15	30	potentiate the activity of bradykinin	–	–	–	–	–	–	–	–	–
CC[C@H](C)[C@H](NC(=O)[C@H](CCC(N)=O)NC(=O)[C@@H]1CCCN1C(=O)[C@H](CCCNC(=N)N)NC(=O)[C@@H]1CCCN1C(=O)[C@H](Cc1c[nH]c2ccccc12)NC(=O)[C@H](CC(C)C)NC(=O)[C@@H]1CCC(=O)N1)C(=O)N1CCC[C@H]1C(=O)N1CCC[C@H]1C(=O)O [Decapeptide II, Glp-Leu-Trp-Pro-Arg-Pro-Gln-Ile-Pro-Pro-OH, reference compound] ([pGlu]LWPRPQIPP-OH)	–	–	–	–	–	–	–	–	–	–	10	15	15	10	15	15	causes a lowering in arterial pressure	potentiates the activity of bradykinin, prolonging the hypotensive effect thereof	–
CC[C@H](C)[C@H](NC(=O)[C@H](CCC(N)=O)NC(=O)[C@@H]1CCCN1C(=O)[C@H](CCCN)NC(=O)[C@@H]1CCCN1C(=O)[C@H](Cc1c[nH]c2ccccc12)NC(=O)[C@H](CC(C)C)NC(=O)[C@@H]1CCC(=O)N1)C(=O)N1CCC[C@H]1C(=O)N1CCC[C@H]1C(=O)O [Decapeptide III, Glp-Leu-Trp-Pro-Orn-Pro-Gln-Ile-Pro-Pro-OH] ([pGlu]LWP[Orn]PQIPP-OH)	–	–	–	–	–	stronger and more long-lasting hypotensive effect than decapeptide (II)	–	–	–	potentiates the hypotensive effect of bradykinin	> 10	20	25	90	15	15	–	–	shows an eurhythmizing effect
